Laboratory results: patent US20110033837A1 (priority 2007, published 2011)

Assays:
primary HIV-1 isolates = conditions: isolates P-31, P-41-0, P41-28 and P-51; IsnoR5 clone 2 cells; 1 μg/ml AMD 3100
Procedure: Virus-containing supernatants, normalized to 5 ng/ml HIV-1 Gag p24, were titrated in the IsnoR5 clones in the absence and presence of 1 μg/ml AMD 3100. After 14 days, cell free supernatants tested for viral Gag protein by p24 antigen capture assay. The number of positive wells was used to determine the TCID50 of the original sample.
Virus isolation was performed as previously described (Holtkamp et al., 2000) except that viral replication was detected using an antigen capture enzyme-linked immunosorbent assay (ELISA) for the HIV-1 Gag p24 core protein. Inactivated supernatants (0.2% Tween 20) were titrated on ELISA plates coated with the Gag-specific monoclonal antibody Ag3.0 (hybridoma kindly provided by Jon Allan, Southwest Foundation, San Antonio, Tex., USA). […] Captured protein was detected using pooled sera from HIV-1 positive individuals followed by a goat antihuman immunoglobulin G-peroxidase conjugate (Sigma-Aldrich, Taufkirchen, Germany). Virus levels were calculated by comparison with a standard HIV-1 supernatant of known p24 Gag concentration.
Virus-containing supernatants were serially diluted in media and aliquoted (50 μl per well, six replicates per dilution) into U-well microtiter plates containing 2×10^5 of IsnoR5 clones 1 or 2 or 4.5×10^5 PBMC from healthy blood donors in 150 μl medium. […]

[1] = tested on: CXCR4-tropic virus strains; conditions: cited from earlier work
[2] = tested on: dualtropic viruses that use CCR5 and CXCR4; conditions: human PBMC; cited from earlier work

c1cc(CN2CCCNCCNCCCNCC2)ccc1CN1CCCNCCNCCCNCC1 [AMD 3100]
Replication of isolates in the presence of AMD 3100 (FIG. 5) (primary HIV-1 isolates): all were inhibited from replication | Infection of cells by CXCR4-tropic virus strains [1]: preventing infection | Block of dualtropic viruses [2]: efficiently block
